Patent US8415469B2, “Compounds and methods for kinase modulation, and indications therefor” (Plexxikon Inc., priority 2005, dated 2013)

Experiments:
Format in all cases: biochemical
Kdr = biological target: T1, Kdr (Homo sapiens, UniProt P35968); experiment: Z'-Lyte FRET kinase assay (Invitrogen), Kdr; details: read-out: IC50, activity toward kinase Kdr
T1 construct: purchased Invitrogen (assay run by Invitrogen)

IGF1R = IGF1R (Homo sapiens, UniProt P08069); experiment: AlphaScreen kinase assay, IGF1R; details: read-out: IC50, activity toward kinase IGF1R
IGF1R, sequence (P08069 31-1367): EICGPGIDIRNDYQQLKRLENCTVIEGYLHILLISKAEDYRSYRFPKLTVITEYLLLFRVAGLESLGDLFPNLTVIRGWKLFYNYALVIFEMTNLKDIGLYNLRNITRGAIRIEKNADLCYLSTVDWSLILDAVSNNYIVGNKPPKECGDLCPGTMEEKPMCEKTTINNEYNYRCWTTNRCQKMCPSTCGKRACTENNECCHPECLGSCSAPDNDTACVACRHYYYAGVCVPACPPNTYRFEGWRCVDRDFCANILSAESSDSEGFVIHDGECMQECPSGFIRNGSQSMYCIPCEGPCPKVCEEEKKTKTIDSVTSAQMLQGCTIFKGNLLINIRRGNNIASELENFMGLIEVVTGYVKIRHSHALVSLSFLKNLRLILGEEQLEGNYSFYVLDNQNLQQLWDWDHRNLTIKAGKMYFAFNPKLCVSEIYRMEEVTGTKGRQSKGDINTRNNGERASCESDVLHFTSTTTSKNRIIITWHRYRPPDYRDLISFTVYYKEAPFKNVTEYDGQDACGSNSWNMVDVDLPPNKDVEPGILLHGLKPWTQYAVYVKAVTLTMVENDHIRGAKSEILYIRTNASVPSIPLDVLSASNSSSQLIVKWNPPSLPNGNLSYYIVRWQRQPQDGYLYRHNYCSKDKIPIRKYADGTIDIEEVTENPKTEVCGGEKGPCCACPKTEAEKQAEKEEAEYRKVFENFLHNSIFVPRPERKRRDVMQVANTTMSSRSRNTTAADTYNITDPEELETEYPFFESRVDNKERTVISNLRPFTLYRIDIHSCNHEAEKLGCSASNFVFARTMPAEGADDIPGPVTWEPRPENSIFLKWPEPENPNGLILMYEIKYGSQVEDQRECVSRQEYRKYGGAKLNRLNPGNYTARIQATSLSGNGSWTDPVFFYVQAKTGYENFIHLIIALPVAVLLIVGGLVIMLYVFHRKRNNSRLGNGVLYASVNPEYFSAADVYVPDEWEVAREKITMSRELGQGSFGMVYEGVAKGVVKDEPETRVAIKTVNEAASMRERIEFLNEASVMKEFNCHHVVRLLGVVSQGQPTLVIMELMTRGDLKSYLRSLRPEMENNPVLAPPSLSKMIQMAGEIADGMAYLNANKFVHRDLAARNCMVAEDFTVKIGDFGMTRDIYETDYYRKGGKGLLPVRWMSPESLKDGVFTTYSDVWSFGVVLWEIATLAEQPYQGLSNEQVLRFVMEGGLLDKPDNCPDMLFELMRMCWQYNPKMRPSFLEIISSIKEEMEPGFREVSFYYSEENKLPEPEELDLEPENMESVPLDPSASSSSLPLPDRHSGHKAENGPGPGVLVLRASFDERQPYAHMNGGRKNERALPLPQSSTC
Experimental: AlphaScreen assays were done using compounds dissolved in DMSO to a concentration of 20 mM. The compounds were diluted accordingly to the desired final concentrations in each sample well, using 1:3 serial dilution for a total of 8 concentration points. Plates were prepared such that each kinase reaction is 20 μl in 1× kinase buffer, 5% DMSO and 10 μM ATP. After incubation of the kinase reaction for 1 hour at room temperature, 5 μl of donor beads in stop buffer (50 mM EDTA in 1× kinase buffer) was added, the sample was mixed and incubated for 20 minutes at room temperature before adding 5 μl of acceptor beads in stop buffer. The samples were incubated for 60 minutes at room temperature and the signal per well was read on AlphaQuest reader.

IKK beta = biological target: T2, IKK beta (Homo sapiens, UniProt O14920); experiment: AlphaScreen kinase assay, IKK beta; details: read-out: IC50, activity toward kinase IKK beta
T2 sequence (O14920 1-756): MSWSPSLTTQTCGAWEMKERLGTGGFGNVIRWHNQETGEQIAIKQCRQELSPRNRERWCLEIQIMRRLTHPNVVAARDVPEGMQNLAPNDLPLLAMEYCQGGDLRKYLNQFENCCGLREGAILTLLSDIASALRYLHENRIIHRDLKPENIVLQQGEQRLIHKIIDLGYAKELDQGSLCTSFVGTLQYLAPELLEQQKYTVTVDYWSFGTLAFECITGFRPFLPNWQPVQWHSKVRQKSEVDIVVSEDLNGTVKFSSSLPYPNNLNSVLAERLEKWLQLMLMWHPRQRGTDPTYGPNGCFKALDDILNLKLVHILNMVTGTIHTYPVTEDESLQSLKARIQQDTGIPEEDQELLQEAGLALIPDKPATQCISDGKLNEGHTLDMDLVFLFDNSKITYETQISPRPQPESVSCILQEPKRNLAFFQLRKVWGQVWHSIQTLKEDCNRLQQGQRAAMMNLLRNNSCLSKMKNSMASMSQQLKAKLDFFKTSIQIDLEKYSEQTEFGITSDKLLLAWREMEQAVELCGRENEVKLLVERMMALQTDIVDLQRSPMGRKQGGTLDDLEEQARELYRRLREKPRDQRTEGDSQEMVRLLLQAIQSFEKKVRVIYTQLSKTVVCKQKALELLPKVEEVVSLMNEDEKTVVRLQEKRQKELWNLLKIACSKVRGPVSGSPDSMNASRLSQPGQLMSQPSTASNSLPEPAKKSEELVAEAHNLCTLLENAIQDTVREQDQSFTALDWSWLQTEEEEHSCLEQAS

Jak3 = biological target: T3, Jak3 (Homo sapiens, UniProt P52333); experiment: AlphaScreen kinase assay, Jak3; details: read-out: IC50, activity toward kinase Jak3
T3 sequence (P52333 1-1124): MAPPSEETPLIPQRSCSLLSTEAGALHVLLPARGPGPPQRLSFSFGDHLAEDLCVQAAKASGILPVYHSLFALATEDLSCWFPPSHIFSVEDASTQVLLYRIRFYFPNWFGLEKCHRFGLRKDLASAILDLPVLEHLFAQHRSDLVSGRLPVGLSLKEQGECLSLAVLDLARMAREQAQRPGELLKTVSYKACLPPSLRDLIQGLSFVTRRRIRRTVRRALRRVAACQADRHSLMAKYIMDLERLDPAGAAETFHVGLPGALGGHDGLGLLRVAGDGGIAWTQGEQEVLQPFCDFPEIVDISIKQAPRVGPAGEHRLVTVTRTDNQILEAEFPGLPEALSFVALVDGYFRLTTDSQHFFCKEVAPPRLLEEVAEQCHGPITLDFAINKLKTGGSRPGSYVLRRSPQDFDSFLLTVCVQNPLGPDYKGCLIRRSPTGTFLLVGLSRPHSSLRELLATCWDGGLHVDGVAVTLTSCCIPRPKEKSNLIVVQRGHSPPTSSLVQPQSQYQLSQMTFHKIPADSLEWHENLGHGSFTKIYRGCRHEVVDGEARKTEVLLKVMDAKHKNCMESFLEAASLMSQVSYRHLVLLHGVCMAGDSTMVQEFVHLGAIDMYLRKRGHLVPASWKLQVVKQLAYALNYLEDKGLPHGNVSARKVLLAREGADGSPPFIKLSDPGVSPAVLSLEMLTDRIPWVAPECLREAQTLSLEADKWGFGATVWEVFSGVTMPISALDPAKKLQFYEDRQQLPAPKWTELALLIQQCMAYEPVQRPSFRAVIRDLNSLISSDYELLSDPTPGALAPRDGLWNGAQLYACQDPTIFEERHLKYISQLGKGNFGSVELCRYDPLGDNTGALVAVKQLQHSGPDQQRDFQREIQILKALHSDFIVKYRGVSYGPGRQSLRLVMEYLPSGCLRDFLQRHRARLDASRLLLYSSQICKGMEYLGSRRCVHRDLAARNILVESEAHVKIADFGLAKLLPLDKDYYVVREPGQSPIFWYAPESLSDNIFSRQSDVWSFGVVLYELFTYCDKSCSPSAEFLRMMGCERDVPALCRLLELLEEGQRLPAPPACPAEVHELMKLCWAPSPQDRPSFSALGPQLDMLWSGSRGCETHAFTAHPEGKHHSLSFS
From the text: (§1) AlphaScreen assay was used to screen additional kinases. The assay is similarly dependent on the phosphorylation of a peptide substrate. In this assay, an antibody that recognizes phosphorylated substrate is bound to an acceptor bead. The peptide substrate is attached to biotin, which binds to a donor head that contains streptavidin. Thus phosphorylated substrate is bound by antibody and streptavidin, bringing the donor and acceptor heads into close proximity when kinase is not inhibited. The donor produces singlet oxygen which results in emission from the acceptor when they are in close proximity. Conversely, when kinase is inhibited, the donor and acceptor beads are not associated and the emission from the acceptor is reduced.
(§2) AlphaScreen assays were done using compounds dissolved in DMSO to a concentration of 20 mM. The compounds were diluted accordingly to the desired final concentrations in each sample well, using 1:3 serial dilution for a total of 8 concentration points.

Jnk3 = biological target: T4, Jnk3 (Homo sapiens, UniProt P53779); experiment: AlphaScreen kinase assay, Jnk3; details: read-out: IC50, activity toward kinase Jnk3
T4 construct: purchased Upstate Biotechnology
T4 sequence (P53779 whole entry): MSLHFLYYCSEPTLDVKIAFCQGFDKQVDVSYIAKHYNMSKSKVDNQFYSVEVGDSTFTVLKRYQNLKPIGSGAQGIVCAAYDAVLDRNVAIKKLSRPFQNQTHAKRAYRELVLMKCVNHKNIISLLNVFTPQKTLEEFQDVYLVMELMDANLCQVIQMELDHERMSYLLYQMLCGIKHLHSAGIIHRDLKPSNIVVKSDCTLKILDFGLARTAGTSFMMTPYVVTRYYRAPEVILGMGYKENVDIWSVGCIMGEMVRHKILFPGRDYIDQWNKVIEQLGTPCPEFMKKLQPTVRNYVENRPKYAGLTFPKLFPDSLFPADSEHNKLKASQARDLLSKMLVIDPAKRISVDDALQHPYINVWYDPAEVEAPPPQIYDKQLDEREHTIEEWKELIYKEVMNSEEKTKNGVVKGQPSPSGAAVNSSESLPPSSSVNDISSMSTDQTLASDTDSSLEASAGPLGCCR

Kit = biological target: T5, Kit (Homo sapiens, UniProt P10721); experiment: AlphaScreen kinase assay, Kit; details: read-out: IC50, activity toward kinase Kit
T5 construct: P1332.N6 BI PTP KIT M552-K948-X COD; His6 (N); made in house; host or cells: E. coli (PTP1B co-expressed)

Ret = biological target: T6, Ret (Homo sapiens, UniProt P07949); experiment: AlphaScreen kinase assay, Ret; details: read-out: IC50, activity toward kinase Ret
T6 construct: P1378.pET-SF BI-PTP RET H661-R1012 HIS; made in house
T6 sequence (P07949 with tags, fused parts or gaps): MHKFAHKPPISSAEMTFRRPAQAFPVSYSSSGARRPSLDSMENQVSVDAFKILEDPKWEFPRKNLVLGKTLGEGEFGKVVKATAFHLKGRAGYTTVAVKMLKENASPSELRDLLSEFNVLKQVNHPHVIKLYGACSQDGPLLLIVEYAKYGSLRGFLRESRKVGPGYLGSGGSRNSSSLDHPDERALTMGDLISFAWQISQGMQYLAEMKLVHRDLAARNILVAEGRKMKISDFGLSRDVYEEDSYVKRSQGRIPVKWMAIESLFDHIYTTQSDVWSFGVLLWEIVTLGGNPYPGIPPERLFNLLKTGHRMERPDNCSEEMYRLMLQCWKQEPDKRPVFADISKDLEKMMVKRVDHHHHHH

Stk6 = biological target: T7, Stk6 (Homo sapiens, UniProt O14965); experiment: Z'-Lyte FRET kinase assay (Invitrogen), Stk6; details: read-out: IC50, activity toward kinase Stk6
T7 construct: purchased Invitrogen (Carlsbad, Calif.), screening service
T7 sequence (O14965 1-403): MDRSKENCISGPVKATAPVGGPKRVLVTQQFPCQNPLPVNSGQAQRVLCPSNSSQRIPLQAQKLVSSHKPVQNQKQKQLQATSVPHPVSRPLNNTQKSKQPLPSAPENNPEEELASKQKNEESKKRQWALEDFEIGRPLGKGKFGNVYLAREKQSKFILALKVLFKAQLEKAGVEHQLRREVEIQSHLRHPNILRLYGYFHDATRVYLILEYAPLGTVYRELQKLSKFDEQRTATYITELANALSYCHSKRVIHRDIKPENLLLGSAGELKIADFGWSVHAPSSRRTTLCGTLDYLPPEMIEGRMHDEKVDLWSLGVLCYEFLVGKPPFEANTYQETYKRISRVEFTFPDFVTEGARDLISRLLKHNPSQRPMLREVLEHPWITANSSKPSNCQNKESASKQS

B-Raf = biological target: T8, B-Raf (Homo sapiens, UniProt P15056); experiment: AlphaScreen kinase assay, B-Raf; details: read-out: IC50, activity toward kinase B-Raf
T8 construct: purchased Upstate Biotechnology

B-Raf V600E = biological target: T9, B-Raf V600E (Homo sapiens, UniProt P15056, V600E); experiment: AlphaScreen kinase assay, B-Raf V600E; details: read-out: IC50, activity toward kinase B-Raf V600E
T9 construct: P4254. pFastBacBD-CDC37 BRAF D437-K722-X, V600E; His6 with pFastBac HT leader (TEV site) (N); made in house; host or cells: Sf9 (baculovirus; chaperone CDC37 co-expressed)

c-Raf-1 = biological target: T10, c-Raf-1 (Homo sapiens, UniProt P04049); experiment: AlphaScreen kinase assay, c-Raf-1; details: read-out: IC50, activity toward kinase c-Raf-1
T10 construct: purchased Upstate Biotechnology
T10 sequence (P04049 whole entry): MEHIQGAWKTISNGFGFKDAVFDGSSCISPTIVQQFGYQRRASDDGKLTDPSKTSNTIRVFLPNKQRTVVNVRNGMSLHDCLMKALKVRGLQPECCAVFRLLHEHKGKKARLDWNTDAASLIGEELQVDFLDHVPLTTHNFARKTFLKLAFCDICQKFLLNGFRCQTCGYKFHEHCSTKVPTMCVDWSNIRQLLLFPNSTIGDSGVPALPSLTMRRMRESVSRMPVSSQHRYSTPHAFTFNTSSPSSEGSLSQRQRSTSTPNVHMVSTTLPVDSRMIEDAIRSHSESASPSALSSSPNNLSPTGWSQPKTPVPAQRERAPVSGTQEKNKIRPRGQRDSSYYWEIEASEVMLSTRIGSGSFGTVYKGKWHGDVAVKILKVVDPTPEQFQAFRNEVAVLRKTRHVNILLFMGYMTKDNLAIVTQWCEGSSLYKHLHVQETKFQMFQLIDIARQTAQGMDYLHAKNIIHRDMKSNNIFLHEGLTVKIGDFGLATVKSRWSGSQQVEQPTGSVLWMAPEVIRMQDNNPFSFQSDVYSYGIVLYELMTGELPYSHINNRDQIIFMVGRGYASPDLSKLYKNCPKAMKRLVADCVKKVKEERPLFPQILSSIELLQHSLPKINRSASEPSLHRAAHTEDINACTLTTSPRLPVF

Met = biological target: T11, Met (Homo sapiens, UniProt P08581); experiment: AlphaScreen kinase assay, Met; details: read-out: IC50, activity toward kinase Met
T11 construct: P1818.pETN6 BI-PTP MET G1056-G1364-X WT; His6 (N); made in house; host or cells: E. coli (PTP1B co-expressed)
In short: (§3)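 Biotinylated peptide substrate phosphorylation detected by AlphaScreen with phospho-specific antibody acceptor beads and streptavidin donor beads. Compounds tested as 8-point 1:3 serial dilutions from 20 mM DMSO stocks.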

Zap70 = biological target: T12, Zap70 (Homo sapiens, UniProt P43403); experiment: AlphaScreen kinase assay, Zap70; details: read-out: IC50, activity toward kinase Zap70
T12 construct: P1868.pFastBac1 ZAP70 D327-G606 HIS, WT; His7 (HHHHHHH) (C); made in house
T12 sequence (P43403 with tags, fused parts or gaps): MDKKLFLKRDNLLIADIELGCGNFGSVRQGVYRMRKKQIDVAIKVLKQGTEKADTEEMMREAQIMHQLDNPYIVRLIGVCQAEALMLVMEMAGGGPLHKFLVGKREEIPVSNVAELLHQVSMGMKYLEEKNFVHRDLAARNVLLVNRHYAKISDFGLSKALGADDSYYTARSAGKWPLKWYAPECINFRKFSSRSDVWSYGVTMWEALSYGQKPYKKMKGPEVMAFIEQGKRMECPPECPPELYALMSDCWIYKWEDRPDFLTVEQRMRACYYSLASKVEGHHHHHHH
In short: as §3

Itk = biological target: T13, Itk (Homo sapiens, UniProt Q08881); experiment: AlphaScreen kinase assay, Itk; details: read-out: IC50, activity toward kinase Itk
T13 sequence (Q08881 1-620): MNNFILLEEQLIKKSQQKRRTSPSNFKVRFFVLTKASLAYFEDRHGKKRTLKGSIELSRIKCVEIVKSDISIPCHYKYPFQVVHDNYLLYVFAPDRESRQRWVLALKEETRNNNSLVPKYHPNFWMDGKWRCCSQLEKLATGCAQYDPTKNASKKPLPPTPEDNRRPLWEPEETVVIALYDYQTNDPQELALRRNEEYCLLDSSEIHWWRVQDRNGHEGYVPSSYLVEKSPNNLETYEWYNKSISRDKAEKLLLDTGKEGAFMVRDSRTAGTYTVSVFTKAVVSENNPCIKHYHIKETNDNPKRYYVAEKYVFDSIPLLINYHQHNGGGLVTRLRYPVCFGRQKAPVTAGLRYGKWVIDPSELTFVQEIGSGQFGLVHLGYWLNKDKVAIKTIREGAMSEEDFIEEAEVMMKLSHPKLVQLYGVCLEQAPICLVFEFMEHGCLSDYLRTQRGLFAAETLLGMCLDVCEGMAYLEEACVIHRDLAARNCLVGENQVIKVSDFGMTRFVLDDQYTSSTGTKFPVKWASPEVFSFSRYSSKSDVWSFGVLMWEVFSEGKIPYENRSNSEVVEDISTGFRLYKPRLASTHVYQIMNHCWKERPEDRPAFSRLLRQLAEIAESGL
From the text: as §1, §2

FGFR1 = biological target: T14, FGFR1 (Homo sapiens, UniProt P11362, C488A/C584S); experiment: AlphaScreen kinase assay, FGFR1; details: read-out: IC50, activity toward kinase FGFR
T14 construct: P1351.pET N6 BI-PTP FGFR A458-E765-X C488A, C584S; made in house; host or cells: E. coli (PTP1B co-expressed)
T14 sequence (P11362 458-765 C488A/C584S): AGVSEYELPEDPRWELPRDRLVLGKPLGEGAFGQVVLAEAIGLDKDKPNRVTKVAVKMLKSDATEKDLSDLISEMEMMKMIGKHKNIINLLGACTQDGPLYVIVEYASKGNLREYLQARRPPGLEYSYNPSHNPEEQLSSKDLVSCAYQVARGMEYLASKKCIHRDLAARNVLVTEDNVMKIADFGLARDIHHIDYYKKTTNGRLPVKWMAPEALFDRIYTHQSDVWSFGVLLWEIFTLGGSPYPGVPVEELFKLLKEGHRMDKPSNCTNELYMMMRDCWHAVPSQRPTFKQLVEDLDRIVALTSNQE

Fms = biological target: T15, Fms (Homo sapiens, UniProt P07333); experiment: AlphaScreen kinase assay, Fms; details: read-out: IC50, activity toward kinase Fms
T15 construct: purchased Upstate Biotechnology
T15 sequence (P07333 20-972): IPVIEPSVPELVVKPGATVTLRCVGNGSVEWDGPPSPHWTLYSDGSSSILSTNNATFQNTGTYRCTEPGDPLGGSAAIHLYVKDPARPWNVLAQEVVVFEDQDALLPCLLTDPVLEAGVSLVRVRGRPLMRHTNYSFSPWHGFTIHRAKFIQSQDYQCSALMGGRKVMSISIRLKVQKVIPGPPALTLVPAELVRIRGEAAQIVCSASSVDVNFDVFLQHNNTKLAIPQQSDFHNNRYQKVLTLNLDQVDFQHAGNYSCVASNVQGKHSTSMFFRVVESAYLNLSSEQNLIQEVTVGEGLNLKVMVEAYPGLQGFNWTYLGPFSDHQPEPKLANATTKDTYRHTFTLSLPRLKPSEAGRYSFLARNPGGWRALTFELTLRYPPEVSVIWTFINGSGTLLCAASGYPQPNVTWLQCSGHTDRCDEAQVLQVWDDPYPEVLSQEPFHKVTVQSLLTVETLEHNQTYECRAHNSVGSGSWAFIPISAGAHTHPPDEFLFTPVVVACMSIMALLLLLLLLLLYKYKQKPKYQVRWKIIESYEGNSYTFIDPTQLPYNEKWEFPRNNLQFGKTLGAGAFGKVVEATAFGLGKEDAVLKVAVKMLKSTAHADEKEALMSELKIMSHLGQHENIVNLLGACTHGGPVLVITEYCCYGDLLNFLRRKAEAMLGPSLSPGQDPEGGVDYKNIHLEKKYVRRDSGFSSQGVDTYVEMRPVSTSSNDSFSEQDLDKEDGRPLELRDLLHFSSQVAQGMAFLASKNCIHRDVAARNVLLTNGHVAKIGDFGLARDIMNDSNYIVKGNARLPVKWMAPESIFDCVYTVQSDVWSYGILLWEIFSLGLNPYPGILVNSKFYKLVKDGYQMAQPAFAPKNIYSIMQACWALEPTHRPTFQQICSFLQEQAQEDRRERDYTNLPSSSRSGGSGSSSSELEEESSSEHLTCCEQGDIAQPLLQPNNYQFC

Measured: IC50

T1 sequence (P35968 20-1356): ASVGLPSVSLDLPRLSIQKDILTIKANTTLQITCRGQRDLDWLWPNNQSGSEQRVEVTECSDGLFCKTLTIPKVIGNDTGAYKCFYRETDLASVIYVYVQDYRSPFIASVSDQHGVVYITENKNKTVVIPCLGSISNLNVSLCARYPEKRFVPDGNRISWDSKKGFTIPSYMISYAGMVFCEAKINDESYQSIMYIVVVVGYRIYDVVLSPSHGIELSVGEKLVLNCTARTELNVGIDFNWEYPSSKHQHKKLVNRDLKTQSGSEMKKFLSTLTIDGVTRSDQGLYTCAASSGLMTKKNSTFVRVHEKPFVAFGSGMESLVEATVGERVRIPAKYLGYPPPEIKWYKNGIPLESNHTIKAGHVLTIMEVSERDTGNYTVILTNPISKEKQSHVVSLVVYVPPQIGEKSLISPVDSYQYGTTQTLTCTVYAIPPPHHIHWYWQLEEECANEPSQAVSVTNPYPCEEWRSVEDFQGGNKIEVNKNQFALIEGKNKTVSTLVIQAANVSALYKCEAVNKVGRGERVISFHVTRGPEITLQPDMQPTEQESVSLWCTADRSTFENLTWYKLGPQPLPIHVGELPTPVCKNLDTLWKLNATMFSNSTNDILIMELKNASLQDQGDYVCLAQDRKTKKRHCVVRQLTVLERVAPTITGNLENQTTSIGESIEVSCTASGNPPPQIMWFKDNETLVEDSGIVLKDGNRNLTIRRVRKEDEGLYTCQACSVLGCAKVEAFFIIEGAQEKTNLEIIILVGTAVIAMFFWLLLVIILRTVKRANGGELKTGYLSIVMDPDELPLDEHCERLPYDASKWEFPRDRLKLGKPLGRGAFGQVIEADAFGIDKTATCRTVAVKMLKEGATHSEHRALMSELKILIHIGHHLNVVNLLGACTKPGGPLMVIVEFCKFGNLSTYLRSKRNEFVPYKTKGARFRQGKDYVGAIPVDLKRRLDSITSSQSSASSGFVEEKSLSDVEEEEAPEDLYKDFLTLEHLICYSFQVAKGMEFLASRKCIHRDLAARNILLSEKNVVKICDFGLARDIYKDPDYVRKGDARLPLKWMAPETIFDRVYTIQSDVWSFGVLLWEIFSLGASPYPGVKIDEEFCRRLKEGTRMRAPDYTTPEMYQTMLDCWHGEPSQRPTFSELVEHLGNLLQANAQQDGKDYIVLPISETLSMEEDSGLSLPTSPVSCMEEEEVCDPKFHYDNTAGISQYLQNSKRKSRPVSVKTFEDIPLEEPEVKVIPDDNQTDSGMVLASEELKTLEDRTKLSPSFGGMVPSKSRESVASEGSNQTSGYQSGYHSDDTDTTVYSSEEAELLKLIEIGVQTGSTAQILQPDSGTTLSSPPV

OCc1cccc(-c2ccnc3[nH]ccc23)c1 [Compound P-0084]
≤ 10 µM: Kdr | IGF1R | IKK beta | Jak3

CC(=O)Nc1cccc(-c2cnc3[nH]ccc3c2)c1 [Compound P-0115]
≤ 10 µM: Jnk3 | Kdr | Kit | Ret | Stk6 | IGF1R | IKK beta

CS(=O)(=O)Nc1cccc(-c2cnc3[nH]cc(C(=O)c4cc(O)ccc4F)c3c2)c1 [Compound P-0716, N-{3-[3-(2-Fluoro-5-hydroxy-benzoyl)-1H-pyrrolo[2,3-b]pyridin-5-yl]-phenyl}-methanesulfonamide]
≤ 10 µM: B-Raf | B-Raf V600E | c-Raf-1 | Jnk3 | Met | Ret | Zap70 | IGF1R | Itk

CS(=O)(=O)Nc1cccc(-c2cnc3[nH]ccc3c2)c1 [Compound P-1337]
≤ 10 µM: FGFR1 | Fms | IGF1R | Itk
